Assay results reported in ChEMBL document CHEMBL3792277, “Structurally Diverse Mitochondrial Branched Chain Aminotransferase (BCATm) Leads with Varying Binding Modes Identified by Fragment Screening” (J Med Chem, 2016).
In brackets after ≈: the same amount, converted by molar mass.

Target: T1, Branched-chain-amino-acid aminotransferase, mitochondrial (Homo sapiens, UniProt O15382)
T1 sequence (O15382 whole entry): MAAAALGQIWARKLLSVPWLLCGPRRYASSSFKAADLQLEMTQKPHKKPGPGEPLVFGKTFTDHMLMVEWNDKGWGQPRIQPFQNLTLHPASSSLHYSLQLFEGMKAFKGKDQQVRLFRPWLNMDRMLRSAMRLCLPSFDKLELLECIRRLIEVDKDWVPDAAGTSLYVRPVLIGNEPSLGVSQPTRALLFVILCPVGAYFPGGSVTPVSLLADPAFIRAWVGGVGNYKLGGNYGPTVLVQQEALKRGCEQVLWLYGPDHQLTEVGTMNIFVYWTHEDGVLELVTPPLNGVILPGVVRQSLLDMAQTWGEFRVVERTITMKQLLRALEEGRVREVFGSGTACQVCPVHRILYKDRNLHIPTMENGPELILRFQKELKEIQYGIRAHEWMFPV
Assay: Inhibition of human BCATm incubated for 10 mins by Amplex red- based fluorescence analysis

Compound | IC50 [µM]
O=C(O)Cc1ccccc1C(=O)Nc1ccc(-c2cc[nH]n2)cc1 | 2
O=C(O)Cc1noc2ccccc12 | > 1260
O=C1c2ccccc2CCN1c1ccc(-c2cc[nH]n2)cc1 | 1.58
Cc1c(C(=O)Nc2ccccc2S(C)(=O)=O)sc2nc[nH]c(=O)c12 | > 63.1
NC(=O)NCC(O)c1ccccc1 (configuration not stated) | 794
Cc1c(C(=O)Nc2ccccc2)sc2ncnc(O)c12 | 7.94
NC(=O)c1sccc1-c1ccccc1 | 158
Cc1ccc(NC(=O)c2sc3nc[nH]c(=O)c3c2C)cc1 | > 63.1
CC(C)C(Sc1ncnc2ccccc12)C(=O)O (configuration not stated) | 7.94
O=C(Nc1ccc(-c2cc[nH]n2)cc1)c1ccccc1 | 5.01
O=C(CO)NC1CCCc2ccccc21 (configuration not stated) | > 1260
OCc1ccc2nsnc2c1 | > 1260
O=C(Nc1cncnc1)c1ccccc1 | 1000
Cc1c(C(=O)Nc2ccon2)sc2nc[nH]c(=O)c12 | > 63.1
NC(=O)c1ccccc1-c1ccccc1 | 158
NC(=O)c1ccc(N2CCc3ccccc3C2=O)cc1 | 15.8
Cc1cccc(NC(=O)c2sc3nc[nH]c(=O)c3c2C)c1 | > 63.1
Cc1c(C(=O)O)sc2ncn(C)c(=O)c12 | 63.1
Cc1ccccc1NC(=O)c1sc2ncnc(O)c2c1C | 50.1
CC1CNc2c(cccc2S(N)(=O)=O)C1 (configuration not stated) | > 1260
Cc1c(C(=O)Nc2ccccc2)sc2ncn(C)c(=O)c12 | 7.94

Other lines, results leading:

IC50 [µM] | Compound
0.251 | Cc1cc2cc(C)c(SCC(=O)O)nc2cc1C
> 631 | O=C(Nc1ccccc1)c1ccccc1 [N-PHENYLBENZAMIDE]
50.1 | NC(=O)c1ccc(NC(=O)c2ccccc2)cc1
> 63.1 | Cc1c(C(=O)NC2CCCC2)sc2ncn(C)c(=O)c12
> 631 | Cc1c(C(=O)N2CCCCC2)sc2ncn(C)c(=O)c12
316 | O=C(O)Cc1ccccc1C(=O)Nc1ccccc1
2.51 | NC(=O)c1ccc(NC(=O)c2ccc(Cl)c(Cl)c2)cc1
> 63.1 | CCOC(=O)Cc1ccccc1NC(=O)c1sc2nc[nH]c(=O)c2c1C
200 | CS(=O)(=O)c1ccccc1C(=O)Nc1ccccc1
126 | Nc1ccc(Oc2ccccc2)nn1
3.16 | O=C(Nc1cnc(-c2cc[nH]n2)nc1)c1ccccc1

Test system: not listed separately
Assay: Solubility of compound in PBS at pH 7.4 after 1 hr by chemiluminiscent nitrogen detection method
Assay type: physicochemical

Compound | solubility at 1 h [mg/mL]
O=C1c2ccccc2CCN1c1ccc(-c2cc[nH]n2)cc1 | 0.094 (≈ 325 µM)
O=C(Nc1ccc(-c2cc[nH]n2)cc1)c1ccccc1 | 0.012 (≈ 45.6 µM)
NC(=O)c1ccc(N2CCc3ccccc3C2=O)cc1 | 0.132 (≈ 496 µM)

The next lines start with the values.

solubility at 1 h [mg/mL] | Compound
0.013 (≈ 54.1 µM) | NC(=O)c1ccc(NC(=O)c2ccccc2)cc1
0.082 (≈ 309 µM) | O=C(Nc1cnc(-c2cc[nH]n2)nc1)c1ccccc1
